Kd data for one molecule are collected here from ChEMBL document CHEMBL5154793, “Discovery of Thieno[2,3-d]pyrimidine-based KRAS G12D inhibitors as potential anticancer agents via combinatorial virtual screening” (Eur J Med Chem, 2022).

The experiment concerns the target GTPase KRas (Homo sapiens, UniProt P01116, G12D). Description: Binding affinity to human his-tagged KRAS G12D mutant assessed as dissociation constant by isothermal titration calorimetry. A general note: ITC needs no label: the signal is the heat of the interaction.

pKd: −log10 of the molar value.

Chain of GTPase KRas (P01116 whole entry G12D): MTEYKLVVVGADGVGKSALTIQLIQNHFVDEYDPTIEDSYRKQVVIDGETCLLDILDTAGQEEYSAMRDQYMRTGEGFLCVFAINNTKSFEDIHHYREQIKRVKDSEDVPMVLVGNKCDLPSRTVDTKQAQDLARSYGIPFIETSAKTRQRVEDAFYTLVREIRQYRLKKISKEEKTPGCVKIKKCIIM

With `COc1ccc(C(F)(F)F)cc1-c1cc2c(N3CC4CCC(C3)N4)ncnc2s1`, the pKd (as a rule, the Kd on a negative log10 scale, so that one unit is a factor of ten) was 7.48.
